Experimental data taken from patent publication US20120244192A1, “SUSTAINED RELEASE FORMULATIONS OF PEPTIDOMIMETIC DRUGS AND USES THEREOF” (priority 2009, published 2012).

Experiments:
C5a receptor = biological target: T1, C5a receptor (Mus musculus, UniProt P30993); assay: Reverse Passive Arthus Reaction model, immune complex peritonitis; type: in vivo, mice; details: intraperitoneal injection of 1 mg/kg as a liquid formulation
T1 construct: from tissue; host or cells: live mice (peritoneal neutrophil chemotaxis, in vivo)
T1 sequence (P30993 1-351): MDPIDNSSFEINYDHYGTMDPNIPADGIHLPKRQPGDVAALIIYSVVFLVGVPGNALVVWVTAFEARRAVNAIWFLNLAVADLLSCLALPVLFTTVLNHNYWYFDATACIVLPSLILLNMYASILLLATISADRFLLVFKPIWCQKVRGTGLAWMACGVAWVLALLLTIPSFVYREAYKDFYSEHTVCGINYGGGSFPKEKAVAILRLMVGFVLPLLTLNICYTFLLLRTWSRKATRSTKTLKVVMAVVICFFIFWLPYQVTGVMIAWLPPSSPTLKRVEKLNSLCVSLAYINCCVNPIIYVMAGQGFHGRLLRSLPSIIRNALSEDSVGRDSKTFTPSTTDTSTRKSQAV
Description: C5a is a potent chemokine, inducing polymorphic nucleated granulocyte (neutrophils) and monocyte/macrophage chemotaxis. In the Reverse Passive Arthus Reaction model in mice, an immune complex peritonitis is induced by the intravenous administration of ovalbumin followed by intraperitoneal administration of an anti-ovalbumin antiserum, which leads to the formation of antigen-antibody complexes and subsequent activation of the complement system, including generation of C5a [Heller et al., 1999]. (Heller et al (1999) J Immunol 163; 985-994).

C5aR = biological target: T2, C5aR (Mus musculus, UniProt P30993); assay: Allogenic kidney transplantation model (ischemia reperfusion injury); type: in vivo, mice
T2 construct: from tissue; host or cells: live mice (kidney allograft recipients, in vivo)
T2 sequence (P30993 1-351): T1 sequence (P30993 1-351)
Description: (Arumugam, T. V., Shiels I. A., Strachan, A. J., et al (2003) A small molecule C5a receptor antagonist protects kidneys from ischemia/reperfusion injury in rats. Kidney Int 63; 134-142, De Vries B, Matthijsen R A, Wolfs T G et al (2003a) Inhibition of complement factor C5 protects against renal ischemia-reperfusion injury: inhibition of late apoptosis and inflammation Transplantation 75; 375-382, De Vries B, Kohl J, Leclercq W K et al (2003b) Complement factor C5a mediates renal ischemia-reperfusion injury independent of neutrophils. J Immunol 170; 3883-3889.) JPE1375 liquid formulation is active in an allogenic transplantation model in mice. In this model rejection of the transplant is based on an ischemia reperfusion injury with measures of animal/graft survival and renal function. Blockade of C5aR with JPE1375 liquid formulation after transplantation prolonged survival of the animals from days to greater than 12 weeks compared to controls. C5aR blockade with JPE1375 microparticle sustained release formulation is expected to provide similar benefit after a single dose.

Substance: Hoo-Phe-Orn-Pro-hle-Pff-Phe-NH2 [JPE1375]
- inhibition of C5a receptor mediated chemotaxis (C5a receptor): high in vivo potency
- survival of the animals (C5aR; after transplantation, prolonged from days, compared to controls): greater than 12 weeks
- activity in allogenic transplantation model (C5aR; liquid formulation): active
